Reference: patent US20260184738A1 (priority 2023, published 2026)
Like-named read-outs stand apart in the source and are kept apart here.

Tests used:
in vitro [1] = conditions: human
EBOV (VP30, Huh) = assay: microbe, parasite or virus in culture; assay type: cell-based, Ebola Virus; conditions: for EC50: read-out: EC50, EBOV (VP30, Huh)
SARS-CoV-2 (WA-1) [2] = assay: microbe, parasite or virus in culture; assay type: cell-based; conditions: Severe acute respiratory syndrome coronavirus 2, A549, read-out: IC50, SARS-CoV-2 (WA-1) #2
SARS-CoV-2 (Omicron) = assay: microbe, parasite or virus in culture; assay type: cell-based; conditions: Severe acute respiratory syndrome coronavirus 2, Calu-3, read-out: IC50, SARS-CoV-2 (Omicron) (Calu3) #1
DENV2 = assay: Antiviral activity against DENV2; assay type: cell-based; conditions: Dengue Virus 2
[3] = Cytotoxicity (CC50) alongside DENV4 assay
DENV4 = assay: Antiviral activity against DENV4; assay type: cell-based; conditions: Dengue Virus 4
[4] = Cytotoxicity (CC50) alongside DENV2 assay
in vitro [5] = assay: in vitro
CHIKV = assay: Antiviral activity against CHIKV; assay type: cell-based; conditions: Chikungunya virus
[6] = Cytotoxicity (CC50) alongside SARS-CoV-2 WA-1 assay, lab #1; conditions: human, A549 cells
[7] = Cytotoxicity (CC50) alongside SARS-CoV-2 WA-1 assay, lab #2; conditions: human, A549 cells
SARS-CoV-2 (WA-1) [8] = assay: microbe, parasite or virus in culture; assay type: cell-based; conditions: Severe acute respiratory syndrome coronavirus 2, A549, read-out: IC50, SARS-CoV-2 (WA-1) #1
in vitro [9] = assay: in vitro; remark: listed apart in the source
SARS-CoV-2 (A549-hACE2) = assay: microbe, parasite or virus in culture; assay type: cell-based
[10] = Cytotoxicity (CC50) alongside SARS-CoV-2 (A549-hACE2) assay; conditions: human, A549-hACE2 cells
OC43 = assay: Antiviral activity against OC43 (Huh 7.5 IFITM3); assay type: cell-based, human coronavirus; conditions: Betacoronavirus 1, OC43, Huh7.5
VEEV = assay: microbe, parasite or virus in culture; assay type: cell-based; conditions: Venezuelan equine encephalitis virus, read-out: EC50, VEEV
[11] = Zaire ebolavirus, Huh-7, read-out: IC50, EBOV (VP30, Huh)

| Structure (SMILES) | CC50 (in vitro [1]) [µM] | IC50 (EBOV (VP30, Huh); [11]) [µM] | IC50 (SARS-CoV-2 (WA-1) [2]) [µM] | EC50 (EBOV (VP30, Huh); Zaire ebolavirus) [µM] | IC50 (SARS-CoV-2 (Omicron)) [µM] | IC50 (DENV2) [µM] | IC50 (DENV4) [µM] | further results |
| --- | --- | --- | --- | --- | --- | --- | --- | --- |
| COc1nc(OC)c2sc3ncn([C@@H]4O[C@H](CO)C(O)C4O)c3c2n1 (stereo partly drawn) [CEM-028, 1-[(5,7-dimethoxyimidazo-[4′,5′:4,5]thieno[3,2-d]pyrimidin-3-yl)]-β-D-ribofuranose-2,3,5-Triol] | 138 | 48 | – | – | – | – | – | – |
| CCC(CC)COC(=O)[C@H](C)N[P@](=O)(OC[C@H]1O[C@@H](n2cnc3sc4c(N)nc(N)nc4c32)C(O)C1O)Oc1ccccc1 (stereo partly shown) [CEM-056] | – | – | 44.7 | 22.1 | 59.3 | – | – | – |
| CC(C)OC(=O)[C@H](C)N[P@](=O)(OC[C@H]1O[C@@H](n2cnc3sc4c(N)nc(N)nc4c32)C(C)(F)C1OC(=O)C(C)C)Oc1ccccc1 (stereo partly shown) [CEM-054] | – | – | – | 10.8 | 37.9 | 22 | 10 | CC50 [3]: 32 µM; EC50 (EBOV (VP30, Huh)): 11.2 µM |
| Nc1nc2c(sc3ncn([C@@H]4O[C@H](CO)C(O)C4O)c32)c(=O)[nH]1 (stereo partly drawn) [CEM-021, 1-[(5-Aminoimidazo[4′,5′:4,5]thieno[3,2-d]pyrimidin-3-yl-7-one)]-β-D-ribofuranose 2,3,5-Triol] | 60.5 | 43.6 | – | – | – | 73.5 | 100 | CC50 [4]: > 100 µM |
| CCC(CC)COC(=O)[C@H](C)N[P@](=O)(OC[C@H]1O[C@@H](n2cnc3sc4c(N)nc(N)nc4c32)[C@](C)(F)C1OC(=O)C(C)C)Oc1ccccc1 (stereo partly shown) [CEM-055] | – | – | 11.9 | 6.2 | 19.6 | – | – | EC50 (EBOV (VP30, Huh)): 10.1 µM |
| Nc1nc(N)c2sc3ncn([C@@H]4O[C@H](CO)C(O)C4O)c3c2n1 (stereo partly drawn) [CEM-007, 1-[(5,7-diaminoimidazo-[4′,5′:4,5]thieno[3,2-d]pyrimidin-3-yl)]-β-D-ribofuranose-2,3,5-Triol] | > 100 | 15.2 | – | 40.5 | 56.4 | 45 | 64 | IC50 (EBOV (VP30, Huh); read-out: IC50, EBOV (VP30, Huh)): 11.7 µM |
| CC(C)OC(=O)[C@H](C)N[P@](=O)(OC[C@H]1O[C@@H](n2cnc3sc4c(=O)[nH]cnc4c32)C(O)C1O)Oc1ccccc1 (stereo in doubt) [CEM-010] | – | – | – | – | – | – | – | CC50 (in vitro [5]): > 100 µM; IC50 (CHIKV): 82.5 µM |
| CCC(CC)COC(=O)[C@H](C)N[P@](=O)(OC[C@H]1O[C@@H](n2cnc3sc4c(N)nc(N)nc4c32)C(C)(F)C1O)Oc1ccccc1 (stereo partly shown) [CEM-052] | – | – | – | 9.1 | 20.6 | 19 | 16 | CC50 [3]: 33 µM; EC50 (EBOV (VP30, Huh)): 11.4 µM |
| CC(C)OC(=O)[C@H](C)N[P@](=O)(OC[C@H]1O[C@@H](n2cnc3sc4c(N)ncnc4c32)C(O)C1O)Oc1ccccc1 (stereo partly shown) [CEM-012] | 17.7 | 49.3 | – | – | – | – | – | – |
| COc1nc(OC)c2sc3ncn([C@@H]4O[C@H](CO[P@@](=O)(N[C@@H](C)C(=O)OC(C)C)Oc5ccccc5)C(O)C4O)c3c2n1 (stereo partly shown) [CEM-036] | – | 37.7 | 48.4 | – | > 100 | 24 | 34 | CC50 [6]: > 100 µM; CC50 [7]: > 100 µM; IC50 (SARS-CoV-2 (WA-1) [8]): 21.6 µM; CC50 [4]: > 100 µM |
| CC1(F)C(O)[C@@H](CO)O[C@H]1n1cnc2sc3c(N)nc(N)nc3c21 (stereo in doubt) [CEM-024, 2′-deoxy-2′-fluoro-2′-C-methyl-1′-[(5,7-diaminoimidazo-[4′,5′:4,5]thieno[3,2-d]pyrimidin-3-yl)]-β-D-ribofuranose] | 11 | 31 | – | – | – | – | – | – |
| CC(C)OC(=O)[C@H](C)N[P@@](=O)(Oc1ccccc1)OC1[C@@H](CO[P@@](=O)(N[C@@H](C)C(=O)OC(C)C)Oc2ccccc2)O[C@@H](n2cnc3sc4c(N)nc(N)nc4c32)C1(C)F (stereo partly shown) [CEM-042] | – | 11.6 | 5.89 | – | 7.36 | 3.5 | 7.5 | IC90 (DENV2): 6.8 µM; CC50 (in vitro [5]): > 100 µM; CC50 [6]: > 100 µM; CC50 [3]: > 100 µM; IC90 (DENV4): 25 µM; CC50 (in vitro [9]): > 100 µM; EC50 (SARS-CoV-2 (A549-hACE2); Severe acute respiratory syndrome coronavirus 2, read-out: EC50, SARS-CoV-2 (A549-hACE2)): 5.89 µM; EC90 (SARS-CoV-2 (A549-hACE2); Severe acute respiratory syndrome coronavirus 2, read-out: EC90, SARS-CoV-2 (A549-hACE2)): 6.5 µM; CC50 [7]: > 100 µM; IC50 (SARS-CoV-2 (WA-1) [8]): 3.58 µM; CC50 [10]: > 100 µM; EC50 (OC43): 1.5 µM; EC50 (VEEV): 86.7 µM; CC50 [4]: > 100 µM; EC50 (CHIKV): 24.6 µM |
| CCC(CC)COC(=O)[C@H](C)N[P@@](=O)(Oc1ccccc1)OC1[C@@H](CO[P@@](=O)(N[C@@H](C)C(=O)OCC(CC)CC)Oc2ccccc2)O[C@@H](n2cnc3sc4c(N)nc(N)nc4c32)C1(C)F (stereo partly shown) [CEM-053] | – | – | 2.95 | 4.5 | 21.9 | 18 | 2.9 | CC50 [3]: > 50 µM; EC50 (EBOV (VP30, Huh)): 6.7 µM |
| CC(C)OC(=O)[C@H](C)N[P@](=O)(OC[C@H]1O[C@@H](n2cnc3sc(C(N)=O)c(N)c32)C(O)C1O)Oc1ccccc1 (stereo partly shown) [CEM-015] | – | – | – | – | – | – | – | IC50 (CHIKV): 93.9 µM |
